The values that follow come from patent US8232273B2, “Heterocyclic compounds and methods of use” (Genentech, Inc., priority 2008, dated 2012).

Read-outs that look alike come from different tables or passages of the source.

Assay [1] deals with T1, Bcl-xL (GST-Bcl-xL) (Homo sapiens, UniProt Q07817). The assay is described as follows: TR-FRET binding assay, competition with F-Bak for the Bcl-xL binding site.
Assay [2] concerns the target T1, Bcl-xL (GST-Bcl-xL). The experiment in a line: AlphaScreen Bcl-xL binding assay, competition with biotinylated Bim peptide. More on the design: made in house. The settings on record: values listed in the order of Table 1; read-out: Alphascreen results (IC50) against the Bcl-xL protein. The method in brief: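 Acceptor beads with GST-Bcl-xL were combined with donor beads carrying biotinylated Bim peptide after each bead mix was preincubated 30 min at room temperature. Compounds in DMSO, 2-fold serially diluted, were incubated 30 min at room temperature before donor addition, with duplicate plates. Percent inhibition was taken against no-protein and DMSO controls, and IC50 was calculated.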

The target in the next assay is T2, Bcl-2 (GST-Bcl-2) (Homo sapiens, UniProt P10415).
T2 construct: made in house
T2 sequence (P10415 whole entry, species assumed): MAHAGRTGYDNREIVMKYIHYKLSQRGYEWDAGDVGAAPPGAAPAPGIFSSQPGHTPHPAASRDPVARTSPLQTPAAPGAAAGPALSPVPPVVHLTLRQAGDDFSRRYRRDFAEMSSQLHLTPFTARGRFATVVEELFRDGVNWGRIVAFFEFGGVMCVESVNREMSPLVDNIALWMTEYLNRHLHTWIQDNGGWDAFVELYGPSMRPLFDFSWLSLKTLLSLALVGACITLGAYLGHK
The assay is described as follows: TR-FRET binding assay, competition with F-Bak for the Bcl-2 binding site. The settings on record: Bcl-2, for comparison (selectivity). On the procedure:
For each assay plate, a probe/antibody and protein/antibody/probe mixture were included as a negative and a positive control, respectively. Fluorescence was measured on the Envision (Perkin Elmer) using a 340/35 nm excitation filter and 520/525 (F-Bak) and 495/510 nm (Tb-labeled anti-his antibody) emission filters. Dissociation constants (Ki) were determined using Wang's equation (see, Wang, Z. X. An exact mathematical expression for describing competitive binding of two different ligands to a protein molecule. FEBS Lett. 1995 360:111-114). The TR-FRET assay can be performed in the presence of varying concentrations of human serum (HS) or fetal bovine serum (FBS). For comparison, the measurement of the competition of compounds of the invention for other Bcl-2 family protein binding sites (e.g., Bcl-2, Mcl-1) using the TR-FRET binding assay was accomplish by substituting GST-Bcl-xL in the TR-FRET assay with other GST-labeled protein, e.g., GST-Bcl-2, GST-Mcl-1, prepared in-house.

Setting [3] is: values listed in the order of Table 1, read-out: TR-FRET assay results (Ki), Bcl-xL.

By Ki is commonly meant the dissociation constant of the complex between target and ligand, obtained from inhibition or displacement. Broadly, the IC50 is the concentration that inhibits the measured activity by half.

T1 sequence (Q07817 whole entry, species assumed): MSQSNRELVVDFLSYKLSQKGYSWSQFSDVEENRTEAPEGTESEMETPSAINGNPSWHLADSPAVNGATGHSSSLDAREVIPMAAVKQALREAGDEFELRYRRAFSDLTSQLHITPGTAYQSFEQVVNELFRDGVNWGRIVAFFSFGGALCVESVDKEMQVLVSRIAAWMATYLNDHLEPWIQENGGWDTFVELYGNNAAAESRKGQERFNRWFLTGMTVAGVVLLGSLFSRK

Regarding `N#Cc1cscc1-c1ccc(OCCCc2sc(N3CCc4cccc(C(=O)Nc5nc6ccccc6s5)c4C3)nc2C(=O)O)cc1` [Example 51, 2-[8-(Benzothiazol-2-ylcarbamoyl)-3,4-dihydro-1H-isoquinolin-2-yl]-5-{3-[4-(4-cyano-thiophen-3-yl)-phenoxy]-propyl}-thiazole-4-carboxylic acid], the inhibition constant (Ki) on Bcl-xL (GST-Bcl-xL) [1] (setting [3]) is 0.3 nM. Besides, the IC50 on Bcl-xL (GST-Bcl-xL) [2] was 6 nM.

As to `CC(C)n1cnc2c(-c3ccc(OCCCc4sc(N5CCc6cccc(C(=O)Nc7nc8ccccc8s7)c6C5)nc4C(=O)O)cc3)ncnc21` [Example 52, 2-(8-(benzo[d]thiazol-2-ylcarbamoyl)-3,4-dihydroisoquinolin-2(1H)-yl)-5-(3-(4-(9-isopropyl-9H-purin-6-yl)phenoxy)propyl)thiazole-4-carboxylic acid], the Ki was determined as 0.05 nM on Bcl-xL (GST-Bcl-xL) [1] (setting [3]) and 130 nM on Bcl-2 (GST-Bcl-2).

On to `O=C(Nc1nc2ccccc2s1)c1cccc2c1CN(c1nc(C(=O)O)c(CN3CCN(c4ccccc4)CC3)s1)CC2` [Example 62, 2-(8-(benzo[d]thiazol-2-ylcarbamoyl)-3,4-dihydroisoquinolin-2(1H)-yl)-5-((4-phenylpiperazin-1-yl)methyl)thiazole-4-carboxylic acid], for which, at Bcl-xL (GST-Bcl-xL) [1] (setting [3]), the Ki was determined as 130 nM. In addition, the IC50 on Bcl-xL (GST-Bcl-xL) [2] is 1600 nM.

With `O=C(Nc1nc2ccccc2s1)c1cccc2c1CN(c1nc(C(=O)O)c(CN3CCC(c4ccccc4)CC3)s1)CC2` [Example 63, 2-(8-(benzo[d]thiazol-2-ylcarbamoyl)-3,4-dihydroisoquinolin-2(1H)-yl)-5-((4-phenylpiperidin-1-yl)methyl)thiazole-4-carboxylic acid], the Ki on Bcl-xL (GST-Bcl-xL) [1] (setting [3]) came to 248 nM. Besides, on Bcl-xL (GST-Bcl-xL) [2], the IC50 came out at 574 nM.

With `O=C(Nc1nc2ccccc2s1)c1cccc2c1CN(c1nc(C(=O)O)c(CCNS(=O)(=O)c3cccc([N+](=O)[O-])c3)s1)CC2` [Example 70, 2-[8-(Benzothiazol-2-ylcarbamoyl)-3,4-dihydro-1H-isoquinolin-2-yl]-5-[2-(3-nitro-benzenesulfonylamino)-ethyl]thiazole-4-carboxylic acid], the results for the Ki on Bcl-xL (GST-Bcl-xL) [1] (setting [3]) and at Bcl-2 (GST-Bcl-2) were 40 nM and 500 nM, respectively. The IC50 on Bcl-xL (GST-Bcl-xL) [2] turned out to be 260 nM.

As to `O=C(Nc1nc2ccccc2s1)c1cccc2c1CN(c1nc(C(=O)O)c(CN3CCC3c3ccccc3)s1)CC2` (stereo not drawn) [Example 71, 2-[8-(Benzothiazol-2-ylcarbamoyl)-3,4-dihydro-1H-isoquinolin-2-yl]-5-(2-phenyl-azetidin-1-ylmethyl)-thiazole-4-carboxylic acid], the Ki at Bcl-xL (GST-Bcl-xL) [1] (setting [3]) came to 174 nM. The IC50 at Bcl-xL (GST-Bcl-xL) [2] was determined as 570 nM.

For `O=C(Nc1nc2ccccc2s1)c1cccc2c1CN(c1nc(C(=O)O)c(CCOc3ccccc3)s1)CC2` [Example 76, 2-(8-(benzo[d]thiazol-2-ylcarbamoyl)-3,4-dihydroisoquinolin-2(1H)-yl)-5-(2-phenoxyethyl)thiazole-4-carboxylic acid], the Ki on Bcl-2 (GST-Bcl-2) worked out at 350 nM.

In the case of `Nc1nc2ccccc2n1-c1ccc(OCCCc2sc(N3CCc4cccc(C(=O)Nc5nc6ccccc6s5)c4C3)nc2C(=O)O)cc1` [Example 77, 5-(3-(4-(2-amino-1H-benzo[d]imidazol-1-yl)phenoxy)propyl)-2-(8-(benzo[d]thiazol-2-ylcarbamoyl)-3,4-dihydroisoquinolin-2(1H)-yl)thiazole-4-carboxylic acid], at Bcl-xL (GST-Bcl-xL) [1] (setting [3]), the Ki came to 7 nM. On Bcl-xL (GST-Bcl-xL) [2], the IC50 worked out at 34 nM.

Consider `CN1CCN(C(=O)c2ccc(OCCCc3ccc(N4CCc5cccc(C(=O)Nc6nc7ccccc7s6)c5C4)nc3C(=O)O)cc2)CC1` [Example 98, 6-(8-(benzo[d]thiazol-2-ylcarbamoyl)-3,4-dihydroisoquinolin-2(1H)-yl)-3-(3-(4-(4-methylpiperazine-1-carbonyl)phenoxy)propyl)picolinic acid], for which the Ki at Bcl-xL (GST-Bcl-xL) [1] (setting [3]) was determined as 10 nM. Moreover, the IC50 on Bcl-xL (GST-Bcl-xL) [2] is 140 nM.

With `CN(C)CCc1ccc(OCCCc2ccc(N3CCc4cccc(C(=O)Nc5nc6ccccc6s5)c4C3)nc2C(=O)O)cc1` [Example 102, 6-(8-(benzo[d]thiazol-2-ylcarbamoyl)-3,4-dihydroisoquinolin-2(1H)-yl)-3-(3-(4-(2-(dimethylamino)ethyl)phenoxy)propyl)picolinic acid], at Bcl-xL (GST-Bcl-xL) [1] (setting [3]), the Ki was 2 nM. Moreover, the IC50 on Bcl-xL (GST-Bcl-xL) [2] is 20 nM.

`CN(C)CCCc1ccc(OCCCc2sc(N3CCc4cccc(C(=O)Nc5nc6ccccc6s5)c4C3)nc2C(=O)O)c(F)c1` [Example 103, 2-(8-(benzo[d]thiazol-2-ylcarbamoyl)-3,4-dihydroisoquinolin-2(1H)-yl)-5-(3-(4-(3-(dimethylamino)propyl)-2-fluorophenoxy)propyl)thiazole-4-carboxylic acid] registered a Ki on Bcl-xL (GST-Bcl-xL) [1] (with 1% human serum (HS)) of 0.006 nM. Also, the IC50 at Bcl-xL (GST-Bcl-xL) [2] stood at 0.4 nM.

For the compound `CN1CCC(Nc2ccc(OCCCc3ccc(N4CCc5cccc(C(=O)Nc6nc7ccccc7s6)c5C4)nc3C(=O)O)cc2)CC1` [Example 104, 6-(8-(Benzo[d]thiazol-2-ylcarbamoyl)-3,4-dihydroisoquinolin-2(1H)-yl)-3-(3-(4-(1-methylpiperidin-4-ylamino)phenoxy)propyl)picolinic acid], the Ki at Bcl-xL (GST-Bcl-xL) [1] (setting [3]) stood at 1 nM. The IC50 on Bcl-xL (GST-Bcl-xL) [2] turned out to be 9.6 nM.

In the case of `CN1CCN(c2cccc(OCCCc3ccc(N4CCc5cccc(C(=O)Nc6nc7ccccc7s6)c5C4)nc3C(=O)O)c2)CC1` [Example 105, 6-(8-(benzo[d]thiazol-2-ylcarbamoyl)-3,4-dihydroisoquinolin-2(1H)-yl)-3-(3-(3-(4-methylpiperazin-1-yl)phenoxy)propyl)picolinic acid], the Ki on Bcl-xL (GST-Bcl-xL) [1] (setting [3]) worked out at 0.3 nM. Also, the IC50 at Bcl-xL (GST-Bcl-xL) [2] came out at 2.2 nM.

For the compound `CN1CCN(c2cc(F)c(OCCCc3sc(N4CCc5cccc(C(=O)Nc6nc7ccccc7s6)c5C4)nc3C(=O)O)cc2F)CC1` [Example 108, 2-(8-(benzo[d]thiazol-2-ylcarbamoyl)-3,4-dihydroisoquinolin-2(1H)-yl)-5-(3-(2,5-difluoro-4-(4-methylpiperazin-1-yl)phenoxy)propyl)thiazole-4-carboxylic acid], the Ki at Bcl-xL (GST-Bcl-xL) [1] (setting [3]) was found to be 0.02 nM. Besides, the IC50 at Bcl-xL (GST-Bcl-xL) [2] is 0.4 nM.

For the compound `O=C(Nc1nc2ccccc2s1)c1cccc2c1CN(c1ccc(CCCOc3ccnc(Cl)c3)c(C(=O)O)n1)CC2` [Example 109], the Ki at Bcl-xL (GST-Bcl-xL) [1] (setting [3]) was determined as 0.6 nM. In addition, the IC50 at Bcl-xL (GST-Bcl-xL) [2] worked out at 10.6 nM.

On to `CN(C)CCOc1cnc(-c2ccc(OCCCc3ccc(N4CCc5cccc(C(=O)Nc6nc7ccccc7s6)c5C4)nc3C(=O)O)cc2)nc1` [Example 112, 6-(8-(benzo[d]thiazol-2-ylcarbamoyl)-3,4-dihydroisoquinolin-2(1H)-yl)-3-(3-(4-(5-(2-(dimethylamino)ethoxy)pyrimidin-2-yl)phenoxy)propyl)picolinic acid], for which the Ki at Bcl-xL (GST-Bcl-xL) [1] (setting [3]) amounted to 0.2 nM. Moreover, the IC50 at Bcl-xL (GST-Bcl-xL) [2] worked out at 0.45 nM.

With `CN(C)CCOc1cccc(OCCCc2ccc(N3CCc4cccc(C(=O)Nc5nc6ccccc6s5)c4C3)nc2C(=O)O)c1` [Example 113, 6-(8-(benzo[d]thiazol-2-ylcarbamoyl)-3,4-dihydroisoquinolin-2(1H)-yl)-3-(3-(3-(2-(dimethylamino)ethoxy)phenoxy)propyl)picolinic acid], the Ki at Bcl-xL (GST-Bcl-xL) [1] (setting [3]) was determined as 0.2 nM. Moreover, the IC50 on Bcl-xL (GST-Bcl-xL) [2] was 0.9 nM.

With `O=C(Nc1nc2ccccc2s1)c1cccc2c1CN(c1nc(C(=O)O)c(CCCOc3ccc(OCCN4CCCC4)cc3)s1)CC2` [Example 114, 2-(8-(benzo[d]thiazol-2-ylcarbamoyl)-3,4-dihydroisoquinolin-2(1H)-yl)-5-(3-(4-(2-(pyrrolidin-1-yl)ethoxy)phenoxy)propyl)thiazole-4-carboxylic acid], the Ki on Bcl-xL (GST-Bcl-xL) [1] (setting [3]) was determined as 0.04 nM. In addition, the IC50 on Bcl-xL (GST-Bcl-xL) [2] came to 0.14 nM.

Consider `CN(C)CC#Cc1ccc(OCCCc2sc(N3CCc4cccc(C(=O)Nc5nc6ccccc6s5)c4C3)nc2C(=O)O)c(F)c1` [Example 116, 2-(8-(benzo[d]thiazol-2-ylcarbamoyl)-3,4-dihydroisoquinolin-2(1H)-yl)-5-(3-(4-(3-(dimethylamino)prop-1-ynyl)-2-fluorophenoxy)propyl)thiazole-4-carboxylic acid], for which the Ki at Bcl-xL (GST-Bcl-xL) [1] (setting [3]) is 0.004 nM. Besides, the IC50 at Bcl-xL (GST-Bcl-xL) [2] was found to be 0.2 nM.

Consider `CN(C)CC#Cc1ccc(OCCCc2sc(N3CCc4cccc(C(=O)Nc5nc6ccccc6s5)c4C3)nc2C(=O)O)cc1F` [Example 117, 2-(8-(benzo[d]thiazol-2-ylcarbamoyl)-3,4-dihydroisoquinolin-2(1H)-yl)-5-(3-(4-(3-(dimethylamino)prop-1-ynyl)-3-fluorophenoxy)propyl)thiazole-4-carboxylic acid], for which the Ki on Bcl-xL (GST-Bcl-xL) [1] (setting [3]) stood at 3 nM. For the same compound, the IC50 at Bcl-xL (GST-Bcl-xL) [2] was 17 nM.

As to `CN(C)CC#Cc1cc(F)c(OCCCc2sc(N3CCc4cccc(C(=O)Nc5nc6ccccc6s5)c4C3)nc2C(=O)O)cc1F` [Example 118, 2-(8-(benzo[d]thiazol-2-ylcarbamoyl)-3,4-dihydroisoquinolin-2(1H)-yl)-5-(3-(4-(3-(dimethylamino)prop-1-ynyl)-2,5-difluorophenoxy)propyl)thiazole-4-carboxylic acid], on Bcl-xL (GST-Bcl-xL) [1] (setting [3]), the Ki was determined as 0.01 nM. Also, the IC50 at Bcl-xL (GST-Bcl-xL) [2] amounted to 0.3 nM.
